Laboratory results taken from patent publication US9409866B2, “Pyridine-2-amides useful as CB2 agonists” (Hoffmann-La Roche Inc., priority 2012, dated 2016).
Where two headings read alike, the source gives them in different places.

Tests used:
human CB2 receptors = human CB2 receptors (Homo sapiens (Human), UniProt P34972); test: functional cAMP assay, CHO cells expressing human CB2; type: cell-based
Summary of the method: (§1)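 CHO cells expressing human CB1 or CB2 were preincubated 30 min at 30 °C in Krebs Ringer bicarbonate with 1 mM IBMX, then exposed to compound 30 min at 30 °C. cAMP quantified by TR-FRET competition (Alexa700 antibody/ruthenium-cAMP) against a 10 μM–0.13 nM standard curve; EC50 derived.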

human CB1 receptors = human CB1 receptors (Homo sapiens (Human), UniProt P21554); test: functional cAMP assay, CHO cells expressing human CB1; type: cell-based
Chain of human CB1 receptors (P21554 whole entry): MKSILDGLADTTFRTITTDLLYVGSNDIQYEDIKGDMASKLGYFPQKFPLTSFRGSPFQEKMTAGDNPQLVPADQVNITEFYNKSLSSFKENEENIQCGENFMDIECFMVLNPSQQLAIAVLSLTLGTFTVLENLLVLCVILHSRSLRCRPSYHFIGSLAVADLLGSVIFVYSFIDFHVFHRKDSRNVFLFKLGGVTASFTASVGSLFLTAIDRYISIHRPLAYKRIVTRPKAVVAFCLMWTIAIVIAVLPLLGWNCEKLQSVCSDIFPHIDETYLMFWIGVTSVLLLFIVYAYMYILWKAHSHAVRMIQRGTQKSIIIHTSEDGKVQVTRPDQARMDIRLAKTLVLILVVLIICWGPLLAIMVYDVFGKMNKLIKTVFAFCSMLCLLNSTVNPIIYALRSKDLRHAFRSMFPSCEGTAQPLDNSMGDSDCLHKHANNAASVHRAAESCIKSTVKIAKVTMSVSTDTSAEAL
Summary of the method: as §1

[1] = Human CB1 EC50 (uM), functional cAMP assay, CHO cells expressing human CB1
[2] = read-out: Human CB1 EC50; functional cAMP assay, CHO cells expressing human CB1
[3] = functional cAMP assay, CHO cells expressing human CB1; read-out: Human CB1 EC50

Chain of human CB2 receptors (P34972 whole entry): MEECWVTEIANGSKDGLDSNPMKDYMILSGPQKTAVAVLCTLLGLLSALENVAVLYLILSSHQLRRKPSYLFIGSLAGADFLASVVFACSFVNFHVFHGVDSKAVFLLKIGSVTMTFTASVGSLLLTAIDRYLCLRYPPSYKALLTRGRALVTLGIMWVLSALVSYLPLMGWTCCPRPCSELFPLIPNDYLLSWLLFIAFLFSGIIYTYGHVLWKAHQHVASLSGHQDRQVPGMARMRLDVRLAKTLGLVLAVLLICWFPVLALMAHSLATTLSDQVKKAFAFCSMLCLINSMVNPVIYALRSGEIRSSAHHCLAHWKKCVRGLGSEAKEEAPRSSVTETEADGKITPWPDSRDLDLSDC

Row | Compound | EC50 (human CB2 receptors; Human CB2 EC50 (uM)) | EC50 (human CB1 receptors; [1]) | EC50 (human CB1 receptors; [2]) | EC50 (human CB2 receptors; read-out: Human CB2 EC50) | EC50 (human CB1 receptors; [3])
1 | Cc1nc(C(C)(CS(C)(=O)=O)NC(=O)c2cc(OCC(F)F)c(C3CC3)cn2)no1 (single isomer, unassigned) [Example 283, 5-cyclopropyl-4-(2,2-difluoroethoxy)-N-(2-(5-methyl-1,2,4-oxadiazol-3-yl)-1-(methylsulfonyl)propan-2-yl)picolinamide] | 0.0533 µM | > 10 µM |  |  | 
2 | Cc1nc(C(C)(CS(C)(=O)=O)NC(=O)c2cc(OCC(F)F)c(C3CC3)cn2)no1 (single isomer, unassigned) [Example 284, 5-cyclopropyl-4-(2,2-difluoroethoxy)-N-(2-(5-methyl-1,2,4-oxadiazol-3-yl)-1-(methylsulfonyl)propan-2-yl)picolinamide] | 0.0453 µM |  | > 10 µM |  | 
3 | Cc1nc(C(C)(CC2CC2)NC(=O)c2cc(OC(C)CF)c(C3CC3)cn2)no1 (single isomer, unassigned) [Example 287, 5-cyclopropyl-N-(1-cyclopropyl-2-(5-methyl-1,2,4-oxadiazol-3-yl)propan-2-yl)-4-(1-fluoropropan-2-yloxy)picolinamide] | 0.0014 µM | > 10 µM |  |  | 
4 | Cc1nc(C(C)(CC2CC2)NC(=O)c2cc(OC(C)CF)c(C3CC3)cn2)no1 (single isomer, unassigned) [Example 288, 5-cyclopropyl-N-(1-cyclopropyl-2-(5-methyl-1,2,4-oxadiazol-3-yl)propan-2-yl)-4-(1-fluoropropan-2-yloxy)picolinamide] | 0.0008 µM |  | > 10 µM |  | 
5 | Cc1nc(C(C)(CC2CC2)NC(=O)c2cc(OC(C)CF)c(C3CC3)cn2)no1 (single isomer, unassigned) [Example 289, 5-cyclopropyl-N-(1-cyclopropyl-2-(5-methyl-1,2,4-oxadiazol-3-yl)propan-2-yl)-4-(1-fluoropropan-2-yloxy)picolinamide] |  |  | > 10 µM | 0.001 µM | 
6 | Cc1nc(C(C)(CC2CC2)NC(=O)c2cc(OC(C)CF)c(C3CC3)cn2)no1 (single isomer, unassigned) [Example 290, 5-cyclopropyl-N-(1-cyclopropyl-2-(5-methyl-1,2,4-oxadiazol-3-yl)propan-2-yl)-4-(1-fluoropropan-2-yloxy)picolinamide] |  |  | > 10 µM | 0.0006 µM | 
7 | CC(CF)Oc1cc(C(=O)NC2(CC(N)=O)CS(=O)(=O)C2)ncc1C1CC1 (single isomer, unassigned) [Example 291, N-[3-(2-amino-2-oxoethyl)-1,1-dioxothietan-3-yl]-5-cyclopropyl-4-[1-fluoropropan-2-yl]oxypyridine-2-carboxamide] | 0.0003 µM | > 10 µM |  |  | 
8 | CC(CF)Oc1cc(C(=O)NC2(CC(N)=O)CS(=O)(=O)C2)ncc1C1CC1 (single isomer, unassigned) [Example 292, N-[3-(2-amino-2-oxoethyl)-1,1-dioxothietan-3-yl]-5-cyclopropyl-4-[1-fluoropropan-2-yl]oxypyridine-2-carboxamide] | 0.0019 µM |  | > 10 µM |  | 
9 | Cc1nc(C(C)(CS(C)(=O)=O)NC(=O)c2cc(OC(C)CF)c(C3CC3)cn2)no1 (single isomer, unassigned) [Example 295, 5-cyclopropyl-4-(1-fluoropropan-2-yloxy)-N-(2-(5-methyl-1,2,4-oxadiazol-3-yl)-1-(methylsulfonyl)propan-2-yl)picolinamide] | 0.0024 µM | > 10 µM |  |  | 
10 | Cc1nc(C(C)(CS(C)(=O)=O)NC(=O)c2cc(OC(C)CF)c(C3CC3)cn2)no1 (single isomer, unassigned) [Example 296, 5-cyclopropyl-4-(1-fluoropropan-2-yloxy)-N-(2-(5-methyl-1,2,4-oxadiazol-3-yl)-1-(methylsulfonyl)propan-2-yl)picolinamide] | 0.0422 µM |  | > 10 µM |  | 
11 | Cc1nc(C(C)(CS(C)(=O)=O)NC(=O)c2cc(OC(C)CF)c(C3CC3)cn2)no1 (single isomer, unassigned) [Example 297, 5-cyclopropyl-4-(1-fluoropropan-2-yloxy)-N-(2-(5-methyl-1,2,4-oxadiazol-3-yl)-1-(methylsulfonyl)propan-2-yl)picolinamide] |  |  | > 10 µM | 0.0032 µM | 
12 | Cc1nc(C(C)(CS(C)(=O)=O)NC(=O)c2cc(OC(C)CF)c(C3CC3)cn2)no1 (single isomer, unassigned) [Example 298, 5-cyclopropyl-4-(1-fluoropropan-2-yloxy)-N-(2-(5-methyl-1,2,4-oxadiazol-3-yl)-1-(methylsulfonyl)propan-2-yl)picolinamide] |  |  | > 10 µM | 0.0579 µM | 
13 | CC(CF)Oc1cc(C(=O)NC(C)(CC(N)=O)C2CC2)ncc1C1CC1 (single isomer, unassigned) [Example 301, N-(4-amino-2-cyclopropyl-4-oxobutan-2-yl)-5-cyclopropyl-4-(1-fluoropropan-2-yloxy)picolinamide] | 0.0304 µM | > 10 µM |  |  | 
14 | CC(CF)Oc1cc(C(=O)NC(C)(CC(N)=O)C2CC2)ncc1C1CC1 (single isomer, unassigned) [Example 302, N-(4-amino-2-cyclopropyl-4-oxobutan-2-yl)-5-cyclopropyl-4-(1-fluoropropan-2-yloxy)picolinamide] | 0.001 µM | 0.869 µM |  |  | 
15 | CC(CF)Oc1cc(C(=O)NC(C)(CC(N)=O)C2CC2)ncc1C1CC1 (single isomer, unassigned) [Example 303, N-(4-amino-2-cyclopropyl-4-oxobutan-2-yl)-5-cyclopropyl-4-(1-fluoropropan-2-yloxy)picolinamide] |  |  |  | 0.0485 µM | > 10 µM
16 | CC(CF)Oc1cc(C(=O)NC(C)(CC(N)=O)C2CC2)ncc1C1CC1 (single isomer, unassigned) [Example 304, N-(4-amino-2-cyclopropyl-4-oxobutan-2-yl)-5-cyclopropyl-4-(1-fluoropropan-2-yloxy)picolinamide] |  |  |  | 0.0021 µM | 0.82 µM
17 | Cc1nc(C(C)(NC(=O)c2cc(OCC(F)(F)F)c(C3(F)CCC3)cn2)C2CC2)no1 (single isomer, unassigned) [Example 306, N-(1-cyclopropyl-1-(5-methyl-1,2,4-oxadiazol-3-yl)ethyl)-5-(1-fluorocyclobutyl)-4-(2,2,2-trifluoroethoxy)picolinamide] | 0.0118 µM | > 10 µM |  |  | 
18 | Cc1nc(C(C)(NC(=O)c2cc(OCC(F)(F)F)c(C3(F)CCC3)cn2)C2CC2)no1 (single isomer, unassigned) [Example 307, N-(1-cyclopropyl-1-(5-methyl-1,2,4-oxadiazol-3-yl)ethyl)-5-(1-fluorocyclobutyl)-4-(2,2,2-trifluoroethoxy)picolinamide] | 0.0034 µM | 0.032 µM |  |  | 
19 | CC(CC(N)=O)(NC(=O)c1cc(OCC(F)(F)F)c(C2(F)CCC2)cn1)C1CC1 (single isomer, unassigned) [Example 309, N-[4-amino-2-cyclopropyl-4-oxobutan-2-yl]-5-(1-fluorocyclobutyl)-4-(2,2,2-trifluoroethoxy)pyridine-2-carboxamide] | 0.002 µM | 0.475 µM |  |  | 
20 | CC(CC(N)=O)(NC(=O)c1cc(OCC(F)(F)F)c(C2(F)CCC2)cn1)C1CC1 (single isomer, unassigned) [Example 310, N-[4-amino-2-cyclopropyl-4-oxobutan-2-yl]-5-(1-fluorocyclobutyl)-4-(2,2,2-trifluoroethoxy)pyridine-2-carboxamide] | 0.0154 µM | 2.44 µM |  |  | 
21 | Cc1nc([C@@](C)(NC(=O)c2cc(OCC(F)(F)F)c(C3CC3)cn2)C2CC2)no1 (single isomer, unassigned; enantiomer a) [Example 61, 5-Cyclopropyl-4-(2,2,2-trifluoro-ethoxy)-pyridine-2-carboxylic acid [1-cyclopropyl-1-(5-methyl-[1,2,4]oxadiazol-3-yl)-ethyl]-amide (enantiomer A)] | 0.0276 µM | > 10 µM |  |  | 
22 | CC(C)C[C@H](CC(N)=O)NC(=O)c1cc(OCC(F)(F)F)c(C2CC2)cn1 (single isomer, unassigned; enantiomer a) [Example 65, 5-Cyclopropyl-4-(2,2,2-trifluoro-ethoxy)-pyridine-2-carboxylic acid (1-carbamoylmethyl-3-methyl-butyl)-amide (enantiomer A)] | 0.027 µM | > 10 µM |  |  | 
23 | Cc1nc(C(C)(CC2CC2)NC(=O)c2cc(OCC(F)(F)F)c(C3CC3)cn2)no1 (single isomer, unassigned; enantiomer a) [Example 66, 5-Cyclopropyl-4-(2,2,2-trifluoro-ethoxy)-pyridine-2-carboxylic acid [2-cyclopropyl-1-methyl-1-(5-methyl-[1,2,4]oxadiazol-3-yl)-ethyl]-amide (enantiomer A)] | 0.00595 µM | > 10 µM |  |  | 
24 | Cc1nc([C@](C)(NC(=O)c2cc(OCC(F)(F)F)c(Cl)cn2)C2CC2)no1 (single isomer, unassigned; enantiomer a) [Example 74, 5-Chloro-4-(2,2,2-trifluoro-ethoxy)-pyridine-2-carboxylic acid [1-cyclopropyl-1-(5-methyl-[1,2,4]oxadiazol-3-yl)-ethyl]-amide (enantiomer A)] | 0.0133 µM | > 10 µM |  |  | 
25 | Cc1nc([C@](C)(NC(=O)c2cc(OCC(F)(F)F)c(N3CC(F)(F)C3)cn2)C2CC2)no1 (single isomer, unassigned; enantiomer a) [Example 87, 5-(3,3-Difluoro-azetidin-1-yl)-4-(2,2,2-trifluoro-ethoxy)-pyridine-2-carboxylic acid [1-cyclopropyl-1-(5-methyl-[1,2,4]oxadiazol-3-yl)-ethyl]-amide (enantiomer A)] | 0.0568 µM | > 10 µM |  |  | 
